Earlier results in patent publication US20160303264A1, “LIPOSOMES USEFUL FOR NON-INVASIVE IMAGING AND DRUG DELIVERY” (MERRIMACK PHARMACEUTICALS, INC., priority 2013, published 2016).

Conditions: human studies

## CN=C([S-])N/N=C(C)/C(C)=N/NC([S-])=NC.[64Cu+2] [^64Cu-ATSM]
  adverse events or clinically detectable pharmacologic effects: No adverse events or clinically detectable pharmacologic effects
  changes in vital signs or laboratory test results after injection: no clinically significant changes
